Experimental data as given in the NIST ThermoML archive (doi:10.1021/je301353z).

Experiment: xn = mol fraction of the nth substance listed
Settings: 101 kPa, Liquid; for speed of sound: Sing-around technique in a fixed-path interferometer; for mass density: Vibrating tube method

c1ccncc1 [pyridine] + CN1CCCC1=O
Settings	mass density, 293.15 K [kg/m3]	mass density, 298.15 K [kg/m3]	mass density, 303.15 K [kg/m3]	mass density, 308.15 K [kg/m3]	speed of sound, 293.15 K [m/s]	speed of sound, 298.15 K [m/s]	speed of sound, 303.15 K [m/s]	speed of sound, 308.15 K [m/s]
x2 = 0.1276	994.55	989.82	985.09	980.3	1467.8	1445	1425.5	1405.3
x2 = 0.1779	998.64	993.95	989.28	984.53	1478.4	1455.9	1436.8	1416.4
x2 = 0.2348	1003	998.35	993.72	988.98	1490.6	1468.4	1449.4	1429.1
x2 = 0.2664	1005.29	1000.65	996.04	991.33	1497.6	1475.5	1456.2	1436.2
x2 = 0.3291	1009.56	1004.94	1000.35	995.65	1511.1	1489	1469.8	1449.7
x2 = 0.3707	1012.2	1007.56	1002.99	998.31	1519.6	1498	1478.9	1458.8
x2 = 0.4328	1015.86	1011.21	1006.65	1001.96	1532.2	1510.7	1491.6	1471.5
x2 = 0.4749	1018.16	1013.51	1008.96	1004.25	1540.4	1518.6	1499.5	1479.4
x2 = 0.5215	1020.5	1015.82	1011.28	1006.63	1548.4	1527	1508.3	1487.9
x2 = 0.5647	1022.48	1017.8	1013.27	1008.63	1555.7	1534.4	1515.3	1495.4
x2 = 0.6364	1025.43	1020.74	1016.23	1011.56	1565.6	1544.5	1525.6	1505.9
x2 = 0.6778	1026.91	1022.19	1017.71	1013.05	1569.8	1549	1530.8	1510.5
x2 = 0.7312	1028.58	1023.87	1019.36	1014.76	1574.5	1553.6	1535.6	1515.4
x2 = 0.7701	1029.65	1024.9	1020.4	1015.79	1576.5	1556.2	1537.8	1518.1
x2 = 0.8321	1031.09	1026.29	1021.76	1017.16	1577.6	1557.6	1539.3	1519.7
x2 = 0.8711	1031.8	1026.99	1022.43	1017.79	1576.7	1556.8	1538.9	1519.1
x2 = 0.9011	1032.27	1027.41	1022.83	1018.17	1575.4	1555.7	1537.4	1517.6
x2 = 0.9312	1032.65	1027.76	1023.14	1018.45	1573.3	1553.5	1535.4	1515.6
